One data set has as its target Acetyl-CoA carboxylase 1 (Rattus norvegicus, UniProt P11497). Briefly: Inhibition of rat liver ACC1 preincubated for 10 mins followed by acetyl-CoA/KHCO3/[14C]-NaHCO3/ATP addition measured after 20 mins by liquid scintillation counting analysis.
For the next data set, the target named is Acetyl-CoA carboxylase 2 (Homo sapiens, UniProt O00763). Briefly: Inhibition of recombinant human ACC2 expressed in CHO cells by fluorescence polarization assay.
The nature of data set [1]: Intrinsic clearance in human liver microsomes. For orientation: Liver microsomes are vesicles of endoplasmic reticulum, rich in cytochrome P450 enzymes.
Data set [2] can be described thus: Inhibition of acetyl-CoA carboxylase in rat cryopreserved hepatocytes assessed as suppression of de novo lipogenesis. In kind it is cell-based. The following applies: hepatocyte.
Data set [3] is described as follows: Plasma clearance in rat. In kind it is ADME, organism-based.

Sequence of Acetyl-CoA carboxylase 2 (O00763 whole entry): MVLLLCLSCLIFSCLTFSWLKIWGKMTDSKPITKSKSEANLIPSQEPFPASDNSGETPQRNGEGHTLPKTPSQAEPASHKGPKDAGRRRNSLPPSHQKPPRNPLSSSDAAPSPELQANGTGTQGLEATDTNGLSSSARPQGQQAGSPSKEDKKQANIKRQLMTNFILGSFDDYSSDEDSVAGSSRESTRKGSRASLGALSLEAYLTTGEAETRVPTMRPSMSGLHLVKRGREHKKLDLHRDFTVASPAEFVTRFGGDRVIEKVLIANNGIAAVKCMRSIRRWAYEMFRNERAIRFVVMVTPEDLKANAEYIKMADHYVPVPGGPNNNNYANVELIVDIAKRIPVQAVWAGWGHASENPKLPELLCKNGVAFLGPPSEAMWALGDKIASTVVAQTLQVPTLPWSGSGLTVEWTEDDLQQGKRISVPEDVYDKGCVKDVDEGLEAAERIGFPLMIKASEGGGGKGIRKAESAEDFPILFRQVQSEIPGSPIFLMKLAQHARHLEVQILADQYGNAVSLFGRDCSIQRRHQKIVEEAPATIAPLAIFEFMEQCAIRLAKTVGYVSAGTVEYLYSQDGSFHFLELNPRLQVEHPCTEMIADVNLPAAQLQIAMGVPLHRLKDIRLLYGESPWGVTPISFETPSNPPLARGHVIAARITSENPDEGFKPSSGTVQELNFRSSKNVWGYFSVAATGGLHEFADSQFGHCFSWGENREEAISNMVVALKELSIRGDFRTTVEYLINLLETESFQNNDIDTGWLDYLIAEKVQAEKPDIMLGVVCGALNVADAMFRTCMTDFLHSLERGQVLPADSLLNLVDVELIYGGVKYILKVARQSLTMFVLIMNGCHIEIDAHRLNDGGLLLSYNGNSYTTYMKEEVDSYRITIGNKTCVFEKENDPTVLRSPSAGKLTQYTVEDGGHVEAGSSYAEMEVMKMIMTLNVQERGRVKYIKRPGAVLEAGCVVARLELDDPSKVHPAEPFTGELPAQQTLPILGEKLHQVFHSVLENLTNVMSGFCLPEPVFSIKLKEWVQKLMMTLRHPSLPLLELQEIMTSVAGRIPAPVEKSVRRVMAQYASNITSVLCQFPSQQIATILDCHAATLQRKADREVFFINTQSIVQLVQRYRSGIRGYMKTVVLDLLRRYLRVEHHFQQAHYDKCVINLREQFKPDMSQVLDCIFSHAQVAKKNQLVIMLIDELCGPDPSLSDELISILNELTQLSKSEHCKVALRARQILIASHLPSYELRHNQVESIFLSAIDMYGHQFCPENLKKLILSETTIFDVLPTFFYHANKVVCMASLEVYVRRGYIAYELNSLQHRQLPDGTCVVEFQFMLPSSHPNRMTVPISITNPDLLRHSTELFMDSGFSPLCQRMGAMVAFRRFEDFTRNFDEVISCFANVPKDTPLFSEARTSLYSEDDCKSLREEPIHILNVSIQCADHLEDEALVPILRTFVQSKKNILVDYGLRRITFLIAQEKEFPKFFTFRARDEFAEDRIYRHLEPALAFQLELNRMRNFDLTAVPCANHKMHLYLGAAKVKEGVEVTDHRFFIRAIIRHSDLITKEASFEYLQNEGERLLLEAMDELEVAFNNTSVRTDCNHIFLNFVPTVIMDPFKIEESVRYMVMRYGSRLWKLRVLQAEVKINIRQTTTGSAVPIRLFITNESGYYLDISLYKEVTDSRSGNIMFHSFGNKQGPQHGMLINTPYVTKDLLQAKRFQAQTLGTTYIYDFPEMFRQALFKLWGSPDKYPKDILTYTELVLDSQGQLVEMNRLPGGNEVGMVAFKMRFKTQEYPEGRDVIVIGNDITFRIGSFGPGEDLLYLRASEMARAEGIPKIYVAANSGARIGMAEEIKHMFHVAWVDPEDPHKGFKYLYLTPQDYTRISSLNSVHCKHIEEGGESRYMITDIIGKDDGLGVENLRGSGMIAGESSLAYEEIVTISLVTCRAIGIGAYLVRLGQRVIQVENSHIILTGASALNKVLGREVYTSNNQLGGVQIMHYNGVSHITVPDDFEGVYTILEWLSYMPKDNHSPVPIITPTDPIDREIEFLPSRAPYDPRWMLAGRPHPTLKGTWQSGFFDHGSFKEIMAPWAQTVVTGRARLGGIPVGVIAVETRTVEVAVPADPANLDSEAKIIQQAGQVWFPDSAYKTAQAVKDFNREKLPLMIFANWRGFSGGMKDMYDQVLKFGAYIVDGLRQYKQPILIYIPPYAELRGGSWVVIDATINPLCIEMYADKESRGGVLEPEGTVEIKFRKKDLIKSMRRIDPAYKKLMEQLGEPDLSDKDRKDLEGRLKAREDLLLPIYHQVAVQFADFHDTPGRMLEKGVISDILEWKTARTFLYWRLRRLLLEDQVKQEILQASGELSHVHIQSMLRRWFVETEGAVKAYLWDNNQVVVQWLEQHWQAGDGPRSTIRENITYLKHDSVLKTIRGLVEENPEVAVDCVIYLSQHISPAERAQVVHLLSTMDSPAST

The term IC50 denotes the concentration that inhibits the measured activity by half. As to `Cc1cc(C(=O)N2CCC3(CCN(C(=O)OCc4ccccc4)C3)CC2)cc2cn[nH]c12`, the 50% inhibitory concentration (IC50) was found to be 2100 nM at Acetyl-CoA carboxylase 1 and 4000 nM at Acetyl-CoA carboxylase 2.

The CLint scaled is a measure of how fast metabolising enzymes remove a compound, apart from limits set by blood flow. Low values mean slow turnover, high ones rapid turnover. As for `Cc1cc(C(=O)N2CCC3(CC2)CN(C(=O)O[C@H](C)c2ccccc2)C3)cc2cn[nH]c12`, the IC50 stood at 310 nM against Acetyl-CoA carboxylase 1 and 880 nM at Acetyl-CoA carboxylase 2. For the same compound, in data set [1], the intrinsic clearance (CLint scaled) stood at 64 mL/min/kg.

With `Cc1cc(C(=O)N2CCC3(CCN(C(=O)OC(C)(C)C)C3)CC2C)cc2cn[nH]c12` (stereo in doubt; 3.3.1), the concentration for half-maximal inhibition (IC50) was 7900 nM against Acetyl-CoA carboxylase 1 and above 14000 nM at Acetyl-CoA carboxylase 2.

On to `Cc1cc(C(=O)N2CCC3(CC2C)C[C@@H](C)N(C(=O)OCC(C)(C)C)C3)cc2cn[nH]c12` (stereo partly drawn), for which the IC50 was determined as 140 nM against Acetyl-CoA carboxylase 1 and 1100 nM on Acetyl-CoA carboxylase 2.

Take `Cc1cc(C(=O)N2CCC3(CCN(C(=O)OCC(C)(C)C)C3)CC2)cc2cn[nH]c12`: the half-inhibitory concentration (IC50) stood at 220 nM against Acetyl-CoA carboxylase 1 and 800 nM at Acetyl-CoA carboxylase 2. Also, the intrinsic clearance (CLint scaled) in data set [1] was found to be 117 mL/min/kg.

For `Cc1cc(C(=O)N2CCC3(CCN(C(=O)OC(C)C)C3)CC2)cc2cn[nH]c12`, the IC50 against Acetyl-CoA carboxylase 1 was found to be 1600 nM; on Acetyl-CoA carboxylase 2, 4500 nM.

`Cc1cc(C(=O)N2CCC3(CC2)CN(C(=O)OC(C)(C)C)C3C)cc2cn[nH]c12` (stereo not drawn): the 50% inhibitory concentration (IC50) at Acetyl-CoA carboxylase 1 worked out at 240 nM; at Acetyl-CoA carboxylase 2, 900 nM. For the same compound, in data set [1], the CLint scaled is 60 mL/min/kg.

Consider `Cc1cc(C(=O)N2CCC3(CC2)CN(C(=O)OC(C)(C)C)C3)cc2cn[nH]c12`, for which the values for the 50% inhibitory concentration (IC50) on Acetyl-CoA carboxylase 1 and on Acetyl-CoA carboxylase 2 were 450 nM and 800 nM, respectively. Further, the CLint scaled in data set [1] was below 9 mL/min/kg.

`Cc1cc(C(=O)N2CCC3(CCN(C(=O)OC(C)(C)C)CC3)C2)cc2cn[nH]c12`: the IC50 against Acetyl-CoA carboxylase 1 was determined as 1000 nM; on Acetyl-CoA carboxylase 2, 2200 nM. This compound showed a CLint scaled in data set [1] of 94 mL/min/kg.

On to `Cc1cc(C(=O)N2CC3(CCN(C(=O)OC(C)(C)C)CC3)C2)cc2cn[nH]c12`, for which the IC50 against Acetyl-CoA carboxylase 1 is 810 nM; on Acetyl-CoA carboxylase 2, 2400 nM. In data set [1], the intrinsic metabolic clearance (CLint scaled) was 19 mL/min/kg.

Consider `Cc1cc(C(=O)N2CCC3(CC2)CN(C(=O)OCC(C)(C)C)C3)cc2cn[nH]c12`, for which the IC50 at Acetyl-CoA carboxylase 1 was 310 nM; at Acetyl-CoA carboxylase 2, 1400 nM.

Regarding `Cc1cc(C(=O)N2CC3(CN(C(=O)OC(C)(C)C)C3)C2)cc2cn[nH]c12`, the figures for the IC50 against Acetyl-CoA carboxylase 1 and on Acetyl-CoA carboxylase 2 were above 30000 nM and above 10000 nM, respectively.

Take `Cc1cc(C(=O)N2CCC3(CCN(C(=O)OC(C)(C)C)C3)C2)cc2cn[nH]c12` (stereo not drawn): the results for the half-inhibitory concentration (IC50) against Acetyl-CoA carboxylase 1 and on Acetyl-CoA carboxylase 2 were 11000 nM and 20000 nM, respectively.

Take `CC(C)(C)n1cc2c(n1)C(=O)CC1(CCN(C(=O)c3ccc4[nH]ncc4c3)CC1)O2`: the IC50 in data set [2] was found to be 93 nM.

Consider `Cc1cc(C(=O)N2CCC3(CC2)CCN(C(=O)OCC(C)(C)C)[C@@H]3C)cc2cn[nH]c12`, for which the IC50 against Acetyl-CoA carboxylase 1 is 26 nM; at Acetyl-CoA carboxylase 2 it was 200 nM.

`Cc1cc(C(=O)N2CCC3(CC2C)CN(C(=O)OC(C)(C)C)C3)cc2cn[nH]c12` (stereo not drawn): the values for the concentration for half-maximal inhibition (IC50) against Acetyl-CoA carboxylase 1 and on Acetyl-CoA carboxylase 2 were 4800 nM and 9200 nM, respectively. Also, the CLint scaled in data set [1] stood at 46 mL/min/kg.

The clearance is the volume of plasma or blood freed of the substance per unit of time. A high value points to efficient removal. Regarding `Cc1cc(C(=O)N2CCC3(CC2)CCN(C(=O)OCC(C)(C)C)[C@H]3C)cc2cn[nH]c12`, the half-maximal inhibitory concentration (IC50) at Acetyl-CoA carboxylase 1 stood at 16 nM; at Acetyl-CoA carboxylase 2, 110 nM; in data set [2] it was 300 nM. The intrinsic clearance (CLint scaled) in data set [1] was found to be 106 mL/min/kg. The clearance in data set [3] stood at 52 mL/min/kg.

As for `Cc1cc(C(=O)N2CCC3(CCN(C(=O)O[C@H](C)c4ccccc4)C3)CC2)cc2cn[nH]c12`, the half-maximal inhibitory concentration (IC50) at Acetyl-CoA carboxylase 1 is 65 nM; on Acetyl-CoA carboxylase 2, 260 nM. In data set [1], this compound yielded an intrinsic clearance (CLint scaled) of 117 mL/min/kg.

Take `Cc1cc(C(=O)N2CCC3(CCN(C(=O)OC(C)(C)C)C3)CC2C)cc2cn[nH]c12` (stereo in doubt; 3.3.2): the IC50 was 9300 nM against Acetyl-CoA carboxylase 1 and above 17000 nM at Acetyl-CoA carboxylase 2.

For the compound `Cc1cc(C(=O)N2CCC3(CC2C)C[C@H](C)N(C(=O)OCC(C)(C)C)C3)cc2cn[nH]c12` (stereo partly drawn), the figures for the half-maximal inhibitory concentration (IC50) against Acetyl-CoA carboxylase 1 and at Acetyl-CoA carboxylase 2 were 2200 nM and 5500 nM, respectively.

With `Cc1cc(C(=O)N2CCC3(CCN(C(=O)OC(C)(C)C)C3)CC2)cc2cn[nH]c12`, the IC50 stood at 510 nM at Acetyl-CoA carboxylase 1 and 1000 nM on Acetyl-CoA carboxylase 2. In addition, the CLint scaled in data set [1] worked out at 32 mL/min/kg.
